Legend:
[1] = biological target: Matrix metalloproteinase-9 (Homo sapiens, UniProt P14780); test: Inhibition of matrix metalloprotease-9, gelatinase-B
Stromelysin-1 = Stromelysin-1 (Homo sapiens, UniProt P08254); test: Inhibition of matrix metalloprotease-3, stromelysin-1
Interstitial collagenase = biological target: T1, Interstitial collagenase (Homo sapiens, UniProt P03956); test: Inhibition of matrix metalloprotease-1, Collagenase-1
T1 sequence (P03956 whole entry): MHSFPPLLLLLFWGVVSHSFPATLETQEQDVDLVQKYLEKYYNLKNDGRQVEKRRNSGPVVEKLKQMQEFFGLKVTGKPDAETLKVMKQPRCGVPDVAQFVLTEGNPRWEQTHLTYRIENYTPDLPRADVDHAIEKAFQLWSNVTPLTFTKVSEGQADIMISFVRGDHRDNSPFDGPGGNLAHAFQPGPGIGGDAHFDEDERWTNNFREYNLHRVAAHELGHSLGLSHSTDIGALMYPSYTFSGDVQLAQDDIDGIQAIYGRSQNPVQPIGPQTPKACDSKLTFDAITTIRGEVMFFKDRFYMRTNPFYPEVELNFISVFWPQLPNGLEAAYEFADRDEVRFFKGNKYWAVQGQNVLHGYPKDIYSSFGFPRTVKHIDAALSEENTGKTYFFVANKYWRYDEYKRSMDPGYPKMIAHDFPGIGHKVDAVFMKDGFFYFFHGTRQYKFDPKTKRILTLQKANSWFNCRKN

Chain of Stromelysin-1 (P08254 whole entry): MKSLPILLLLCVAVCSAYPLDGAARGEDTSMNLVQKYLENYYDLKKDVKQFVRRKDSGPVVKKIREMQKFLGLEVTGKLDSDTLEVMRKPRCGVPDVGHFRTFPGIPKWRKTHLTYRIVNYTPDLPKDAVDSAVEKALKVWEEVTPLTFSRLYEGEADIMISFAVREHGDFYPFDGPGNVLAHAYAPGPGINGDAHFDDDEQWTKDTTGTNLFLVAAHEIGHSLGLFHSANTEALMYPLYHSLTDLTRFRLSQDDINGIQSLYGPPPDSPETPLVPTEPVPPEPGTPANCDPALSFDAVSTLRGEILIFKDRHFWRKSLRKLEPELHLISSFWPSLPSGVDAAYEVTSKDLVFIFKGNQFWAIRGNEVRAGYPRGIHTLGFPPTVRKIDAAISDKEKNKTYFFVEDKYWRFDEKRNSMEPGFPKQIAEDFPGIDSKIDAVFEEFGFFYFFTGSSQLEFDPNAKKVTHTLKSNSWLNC
Chain of Matrix metalloproteinase-9 (P14780 whole entry): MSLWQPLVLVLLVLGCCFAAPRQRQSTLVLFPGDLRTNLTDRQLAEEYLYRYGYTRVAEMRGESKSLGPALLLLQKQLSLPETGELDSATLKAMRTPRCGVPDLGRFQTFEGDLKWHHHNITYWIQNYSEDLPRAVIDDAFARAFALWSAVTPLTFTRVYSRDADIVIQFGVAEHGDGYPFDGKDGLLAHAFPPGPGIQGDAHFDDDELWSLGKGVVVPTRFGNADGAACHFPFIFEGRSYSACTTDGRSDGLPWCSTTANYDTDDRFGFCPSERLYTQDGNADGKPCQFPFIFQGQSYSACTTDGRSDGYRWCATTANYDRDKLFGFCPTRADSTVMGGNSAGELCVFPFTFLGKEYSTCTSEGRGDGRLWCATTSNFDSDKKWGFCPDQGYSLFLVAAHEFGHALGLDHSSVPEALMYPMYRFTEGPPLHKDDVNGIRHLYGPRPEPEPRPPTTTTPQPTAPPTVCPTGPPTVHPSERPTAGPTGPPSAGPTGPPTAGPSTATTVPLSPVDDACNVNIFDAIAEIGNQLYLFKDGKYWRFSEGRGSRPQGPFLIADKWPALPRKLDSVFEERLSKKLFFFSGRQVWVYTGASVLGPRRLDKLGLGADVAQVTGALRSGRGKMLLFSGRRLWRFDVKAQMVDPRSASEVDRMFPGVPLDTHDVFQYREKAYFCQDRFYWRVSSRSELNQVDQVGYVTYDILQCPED

IC50 [1] [nM]	IC50 (Stromelysin-1) [nM]	IC50 (Interstitial collagenase) [nM]	Compound
250	3700	46	CNC(=O)[C@@H](NC(=O)[C@H](CC(C)C)C[C@@H](O)CS)C(C)(C)C
0.14	9	5	CCCCCCC[C@H](C[C@H](O)CS)C(=O)N[C@H](C(=O)NC)C(C)(C)C
0.14	8	10	CCCCCCC[C@H](CC(=O)CS)C(=O)N[C@H](C(=O)NC)C(C)(C)C
20	36	> 10000	CCCCCCC[C@H](CC(=O)CS)C(=O)N[C@@H](CC(C)C)C(=O)NC(=O)C(CC(C)C)NCC (stereo not given in full)
8	470	11	CNC(=O)[C@@H](NC(=O)[C@H](CC(C)C)C[C@H](O)CS)C(C)(C)C
12	430	140	CCCCCCC[C@H](C[C@@H](O)CS)C(=O)N[C@H](C(=O)NC)C(C)(C)C
8	480	11	CNC(=O)[C@@H](NC(=O)[C@@H](CC(=O)CS)CC(C)C)C(C)(C)C
24	39	> 4000	CCCCCCC[C@H](C[C@H](O)CS)C(=O)N[C@@H](CC(C)C)C(=O)NC(=O)C(CC(C)C)NCC (stereo not given in full)

Compound	IC50 [1] [nM]	IC50 (Stromelysin-1) [nM]	IC50 (Interstitial collagenase) [nM]
CNC(=O)[C@@H](NC(=O)[C@@H](CC(=O)NO)CC(C)C)C(C)(C)C [RO-319790]	–	–	5

Reference: ChEMBL document CHEMBL1130987, “The asymmetric synthesis and in vitro characterization of succinyl mercaptoalcohol and mercaptoketone inhibitors of matrix metalloproteinases” (Bioorg Med Chem Lett, 1998)
